From ChEMBL document CHEMBL3392926, “Antiprotozoal Activity Profiling of Approved Drugs: A Starting Point toward Drug Repositioning”

How the values were obtained:
Leishmania donovani [1] = experiment: microbe, parasite or virus in culture; assay type: functional, organism-based, MHOM/ET/67/L82
Description: DNDI: Leish (axenic) in Vitro, 72 hour

Leishmania donovani [2] = experiment: microbe, parasite or virus in culture; assay type: functional, organism-based, MHOM/ET/67/L82; remark: listed apart in the source
Description: DNDI: Leish (macro) in Vitro, 96 hour

cells [3] = assay type: functional, cell-based; conditions: Rattus norvegicus, L6, 72 h
Description: DNDI: Cytotoxicity in Vitro, 72 hour, in rat skeletal myoblast cells

cells [4] = assay type: functional, cell-based; conditions: Mus musculus, NMRI, BalbC or CD1 mice, Macrophage, 96 h
Description: DNDI: Cytotoxicity in Vitro, 96 hour, in mouse macrophages (infected-amastigotes)

Plasmodium falciparum = experiment: microbe, parasite or virus in culture; assay type: functional, organism-based, K1
Description: DNDI: Malaria in Vitro, 72 hour

Trypanosoma cruzi = experiment: microbe, parasite or virus in culture; assay type: functional, organism-based, Tulahuen C4 (LacZ)
Description: DNDI: Chagas in Vitro, 96 hour

[5] = test system: Trypanosoma brucei rhodesiense; experiment: microbe, parasite or virus in culture; assay type: functional, organism-based, STIB 900
Description: DNDI: HAT in Vitro, 72 hour

[6] = Leishmania donovani, MHOM/ET/67/L82, 72 h
[7] = Leishmania donovani, MHOM/ET/67/L82, 96 h
[8] = Plasmodium falciparum, K1, 72 h
[9] = Trypanosoma cruzi, Tulahuen C4 (LacZ), 96 h
[10] = Trypanosoma brucei, STIB 900, 72 h

Row | Compound | IC50 (Leishmania donovani [1]; [6]) [µM] | IC50 (Leishmania donovani [2]; [7]) [µM] | IC50 (cells [3]) [µM] | IC50 (cells [4]) [µM] | IC50 (Plasmodium falciparum; [8]) [µM] | IC50 (Trypanosoma cruzi; [9]) [µM] | IC50 [5, 10] [µM] | IC50 (Leishmania donovani [1]) [µM] | IC50 (Leishmania donovani [2]) [µM] | IC50 (Trypanosoma cruzi) [µM] | IC50 [5] [µM] | IC50 (Plasmodium falciparum) [µM]
1 | CCn1cc(C(=O)O)c(=O)c2cc(F)c(N3CCNCC3)nc21 [ENOXACIN] | > 312 | > 93.7 | 25 | > 93.7 | 76.8 |  |  |  |  |  |  | 
2 | CC(=O)OCC(CCn1cnc2cnc(N)nc21)COC(C)=O [FAMCICLOVIR] | > 311 | > 93.4 | 180 | > 93.4 | > 156 |  |  |  |  |  |  | 
3 | OC(Cn1cncn1)(Cn1cncn1)c1ccc(F)cc1F [FLUCONAZOLE] |  | > 98 | > 294 | > 98 |  | 9.96 |  |  |  |  |  | 
4 | OCCN1CCN(CCCN2c3ccccc3Sc3ccc(C(F)(F)F)cc32)CC1 [FLUPHENAZINE] |  |  | 11.5 | 22.9 |  |  |  |  |  |  |  | 
5 | Nc1nc2c(ncn2COC(CO)CO)c(=O)[nH]1 [GANCICLOVIR] | > 392 | > 118 | 179 | > 118 | > 196 |  |  |  |  |  |  | 
6 | CC(=O)N1CCN(c2ccc(OCC3COC(Cn4ccnc4)(c4ccc(Cl)cc4Cl)O3)cc2)CC1 (stereo not drawn) [KETOCONAZOLE] | 38.8 | > 18.8 | 51 |  |  | 0.27 | 33.1 |  |  |  |  | 
7 | CN1CCC(=C2c3ccccc3CC(=O)c3sccc32)CC1 [KETOTIFEN] | > 291 | > 97 | 147 | > 97 | 0.75 |  | 15.2 |  |  |  |  | 
8 | Cc1oncc1C(=O)Nc1ccc(C(F)(F)F)cc1 [LEFLUNOMIDE] | 21.8 | > 111 | 124 | > 111 | > 18.5 |  |  |  |  |  |  | 
9 | O=C(O)c1nn(Cc2ccc(Cl)cc2Cl)c2ccccc12 [LONIDAMINE] | 8.66 | > 93.4 | 273 | > 93.4 | > 15.6 |  |  |  |  |  |  | 
10 | Cc1ncc([N+](=O)[O-])n1CCO [METRONIDAZOLE] |  | > 175 | 339 | > 175 |  |  |  |  |  |  |  | 
11 | O=C1CN(/N=C/c2ccc([N+](=O)[O-])o2)C(=O)N1 [NITROFURANTOIN] | 2.12 | > 41.8 | 90.3 | 125 |  | 4.35 | 0.5 |  |  |  |  | 
12 | Cc1ncc([N+](=O)[O-])n1CC(O)CCl (stereo not drawn) [ORNIDAZOLE] | > 136 | > 136 | > 408 | > 136 |  |  | 25.9 |  |  |  |  | 
13 | Nc1nc(O)c2ncn(CCC(CO)CO)c2n1 [PENCICLOVIR] | > 395 | > 118 | 220 | > 118 |  |  | > 395 |  |  |  |  | 
14 | Cc1nc2ccccn2c(=O)c1CCN1CCC(C(=O)c2ccc(F)cc2)CC1 [PIRENPERONE] |  | > 76.2 | 232 | > 76.2 | 4.35 |  | 30 |  |  |  |  | 
15 | CN1CCC(=C2c3ccccc3CCc3sccc32)CC1 [PIZOTYLINE] |  | > 33.9 | 45 | > 102 | 1.86 | 30.6 | 3.99 |  |  |  |  | 
16 | NC(=O)c1cnccn1 [PYRAZINAMIDE] | > 812 | > 244 | 458 | > 244 |  |  | > 812 |  |  |  |  | 
17 | CCc1nc(N)nc(N)c1-c1ccc(Cl)cc1 [PYRIMETHAMINE] |  | > 12.1 | 2.51 | > 12.1 |  | 5.71 | 6.75 |  |  |  |  | 
18 | CC(C)c1nc(CN(C)C(=O)N[C@H](C(=O)N[C@@H](Cc2ccccc2)C[C@H](O)[C@H](Cc2ccccc2)NC(=O)OCc2cncs2)C(C)C)cs1 [RITONAVIR] | 8.97 | > 41.6 |  |  | 16.2 | 20.7 | 4.3 |  |  |  |  | 
19 | Cn1c([N+](=O)[O-])cnc1N1CCN(S(C)(=O)=O)C1=O [SATRANIDAZOLE] | 10.4 | > 104 | > 311 | > 104 |  | 19.1 | 18.7 |  |  |  |  | 
20 | Cc1ncc([N+](=O)[O-])n1CC(C)O (stereo not drawn) [SECNIDAZOLE] | > 161 | > 161 | > 483 | > 161 |  | > 161 | 28.7 |  |  |  |  | 
21 | Cc1cn([C@H]2C=C[C@@H](CO)O2)c(=O)[nH]c1=O [STAVUDINE] | > 446 | > 134 | 266 | > 134 |  |  |  |  |  |  |  | 
22 | Nc1ccc(S(=O)(=O)Nc2ncccn2)cc1 [SULFADIAZINE] |  | > 12 | 20.6 | 40.1 | 1.44 | 24.9 | 18.4 |  |  |  |  | 
23 | Cc1cn([C@H]2C[C@H](N=[N+]=[N-])[C@@H](CO)O2)c(=O)[nH]c1=O [ZIDOVUDINE] | > 374 | > 112 | 207 | > 112 |  |  |  |  |  |  |  | 
24 | AURANOFIN |  |  |  |  |  |  |  | 0.11 | > 1.47 | 2.27 | 0.01 | 1.67
